Consider two compounds from publication PMC12298270, “Development and Validation of a New LC-MS/MS Method for Simultaneous Quantification of Ivacaftor, Tezacaftor and Elexacaftor Plasma Levels in Pediatric Cystic Fibrosis Patients” (Pharmaceuticals, 2025).

On the set-up of data set [1]: method as in PMID 40245791. Conditions: H-QC, after sample preparation; cited from earlier work.
A short description of data set [2]: Plasma levels of IVA, TEZ and ELX by LC-MS/MS in pediatric cystic fibrosis patients at steady state on Kaftrio. To be noted: n = 25 pediatric CF patients, steady state; for Cmax at 4 h: both sexes, human, plasma, oral, 4 h after morning Kaftrio dose. It counts as in vivo, human. Here is the method:
The clinical performance of our validated method was tested on n = 25 samples from pediatric patients affected by cystic fibrosis. Table 5 reports plasma concentrations of IVA, TEZ and ELX measured before (T0) and 4 h after (T4) the morning dose assumption of Kaftrio® (corresponding to IVA Tmax). For IVA, the plasma concentration at 12 h (T12) was obtained by using C4h*e^−β(t12−t4), and the AUC0–12h was calculated to assess the systemic exposure within the interval between two doses (Table 5). Thereafter, AUC0–12h values were multiplied by 2 in order to perform a regression analysis of T0 concentrations versus AUC0–24h.
The clinical applicability of our validated method was tested on n = 25 plasma samples from pediatric patients with a median (range) age of 9.5 (7–17) years and affected by cystic fibrosis (CF). These patients (n = 14 males and n = 11 females) were followed-up during the routine clinical practice at Pneumology and Cystic Fibrosis Unit of Bambino Gesù Children’s Hospital, and were concomitantly receiving therapies with pancreatic enzymes, bronchodilators, antibiotics (including carbapenems, macrolides, beta-lactams, lipopeptides, fluoroquinolones) and proton pump inhibitors.
In order to evaluate systemic exposure to each CFTR modulator, drug levels were measured at steady-state by collecting EDTA–whole blood samples before (T0, corresponding to the minimum plasma concentration, Ctrough,) and 4 h after the morning dose intake (T4, corresponding to the maximum concentration, Cmax). After centrifugation at 3500 rcf for 5 min, plasma was recovered from whole blood samples. Plasma samples were collected and stored at −80 °C until analysis.
According to the Kaftrio® summary of product characteristics (SmPC), patients received a morning dose consisting of two ivacaftor 75 mg/tezacaftor, 50 mg/elexacaftor, 100 mg tablets, whereas one ivacaftor 150 mg tablet was taken in the evening (every 12 h).
Elexacaftor/tezacaftor/ivacaftor plasma levels were determined using high-performance liquid chromatography (HPLC) coupled to mass spectrometry (MS/MS). EDTA–whole blood samples were collected before (T0) and 4 h after (T4) morning drug intake. Analysis of Kaftrio® plasma levels was performed at Division of Metabolic Diseases and Drug Biology of Bambino Gesù Children’s Hospital, IRCCS, in Rome (Italy). The liquid chromatography (LC) system consisted of an UHPLC Agilent 1290 Infinity II (Agilent Technologies, Deutschland GmbH, Waldbronn, Germany). Gradient chromatographic separation was performed in reverse phase mode with a Luna Omega 1.60 µm Polar C18 (100 × 2.1 mm) column (Phenomenex) maintained at 40 °C, with mobile phase A (0.1% formic acid (FA) in water) and mobile phase B (0.1% formic acid and 25% of 2-propanol in ACN). The flow rate of mobile phases was 0.4 mL/min. The duration of each chromatographic run was 10.50 min.
The volume injected was 1 μL. Detection of IVA, IVA-d9, TEZ, TEZ-d4, ELX and ELX-d3 was carried out using a 6470 Mass Spectrometry system (Agilent Technologies, Deutschland GmbH, Waldbronn, Germany) equipped with an ESI-JET-STREAM source operating in the positive ion (ESI+) mode. Mass spectrometric conditions were as follows: Gas Temperature 350 °C, Gas Flow 9 L/min, Sheath Gas Temperature 300 °C, Sheath Gas Flow 9 L/min, Capillary 4000 V, Nebulizer 35 psi.
A 10 µL measure of IS working solution with IVA-d9, TEZ-d4 and ELX-d3 was added to 50 µL of plasma or CAL or QC or blank sample in darkened tubes. After vortexing for 5 s, 300 µL of pure ACN were added to each sample. Samples were mixed for 60 s and centrifuged at 13,000 rpm for 9 min at room temperature. Thereafter, 200 µL of supernatant were collected in amber glass vials and injected into the UHPLC-MS/MS system.
Demographic data and PK parameters were analyzed using descriptive statistics. The median with interquartile range (IQR) was used to describe Ctrough levels. […]

A short description of data set [3]: Stability of prepared QC samples after one cycle of freezing (−80 °C) and thawing. It counts as physicochemical. Conditions: low-, medium- and high-QC samples, thawed after 12 days. Here is the method:
(§1) We have also evaluated the stability of prepared low-, medium- and high-QC samples following one cycle of freezing (−80 °C) and thawing (after 12 days). The calculated stability for ivacaftor, tezacaftor and elexacaftor was 100–107% after 12 days. Patient samples (n = 3 T0 and T4) were randomly selected and re-analyzed after being stored at −80 °C over a period of five months. Compared to the first measurement (time 0), the stability ranged from 85.48 ± 19.83% (mean ± SD) for IVA T4 to 90.55 ± 2.42% for ELX T0 (Supplementary Table S2). Autosampler stability was tested by analyzing IVA, TEZ and ELX concentrations in QCs maintained at room temperature at time 0 (corresponding to preparation of QC samples and to the first measurement) and after 24 h (short-term stability) or 9 days (long-term stability). We also evaluated, on prepared low-, medium- and high-QC samples, the stability following one cycle of freezing (−80 °C) and thawing (after 12 days). To further assess long-term stability, n = 3 T0 and T4 of authentic samples, stored at −80 °C over a period of five months, were randomly chosen and re-analyzed. The percentage difference between the concentration measured at each sampling point and the initial concentration was calculated. Based on ICH guideline M10, a percentage difference below the 15% was considered acceptable.

On the set-up of data set [4]: method as in PMID 36015300. To be noted: cited from earlier work.
A short description of data set [5]: Long-term −80 °C stability of authentic patient plasma samples. It is filed as physicochemical, human. Here is the method: as §1
On the set-up of data set [6]: method as in ref 18 = [18]; 18. U.S. Food and Drug Administration Center for Drug Evaluation and Research: Nda/Bla, Multi-Disciplinary Review and Evaluation, Lumacaftor/Ivacaftor Available online: https://www.accessdata.fda.gov/. To be noted: Trikafta drug registration documents; cited from earlier work.
Data set [7] in a line: Short- and long-term autosampler stability of prepared QC samples at room temperature. It is filed as physicochemical. To be noted: autosampler. Here is the method: Both short- and long-term stability were evaluated on prepared QC samples kept at room temperature for a maximum of 9 days. After 24 h from QC sample preparation and first assessment (Time 0), the stability was around 100% for all QC samples. […] Autosampler stability was tested by analyzing IVA, TEZ and ELX concentrations in QCs maintained at room temperature at time 0 (corresponding to preparation of QC samples and to the first measurement) and after 24 h (short-term stability) or 9 days (long-term stability). We also evaluated, on prepared low-, medium- and high-QC samples, the stability following one cycle of freezing (−80 °C) and thawing (after 12 days). To further assess long-term stability, n = 3 T0 and T4 of authentic samples, stored at −80 °C over a period of five months, were randomly chosen and re-analyzed. The percentage difference between the concentration measured at each sampling point and the initial concentration was calculated. Based on ICH guideline M10, a percentage difference below the 15% was considered acceptable.

Details of data set [8]: method as in PMID 38494378. To be noted: cited from earlier work.
The test system of the next data set is CFTR. Details: method as in PMID 36015300. Conditions: cited from earlier work.
[9] abbreviates: patient plasma n = 3, stored at −80 °C, 5 months vs Time 0.

Where two headings read alike, the source gives them in different places.

Consider `Cc1nn(C)cc1S(=O)(=O)NC(=O)c1ccc(-n2ccc(OCC(C)(C)C(F)(F)F)n2)nc1N1C[C@@H](C)CC1(C)C` [ELX, Elexacaftor], for which, in data set [1], the “Remaining % after ten days in the autosampler” value is 99.8%. The Cmax at 4 h in data set [2] (read-out: Plasma concentration T4 (Cmax), 25th Percentile) is 13300 ng/mL; in data set [2] (read-out: Plasma concentration T4 (Cmax), 75th Percentile), 24100 ng/mL; in data set [2] (read-out: Plasma concentration T4 (Cmax), Median), 17800 ng/mL. The “Plasma concentration T0 (Ctrough), 25th Percentile” value in [2] (before morning Kaftrio dose) turned out to be 5820 ng/mL. The “Plasma concentration T0 (Ctrough), 75th Percentile” value in data set [2] (before morning Kaftrio dose) worked out at 12940 ng/mL. Moreover, the “Plasma concentration T0 (Ctrough), Median” value in [2] (before morning Kaftrio dose) was found to be 8730 ng/mL. Besides, in data set [3], the “Stability after one cycle of freezing and thawing” value was 100–107%. Moreover, the Tmax – broadly, the time from dosing to the highest level – in data set [4] is 6 h. Further, in data set [5] (n = 3 T0 and T4 patients' samples, −80 °C, five months), the “Stability, % of the first measurement” value was “higher than 85%”. Besides, the “Stability (%) mean ± SD, T0 samples” value in [5] (setting [9]) was determined as 90.55 ± 2.42%. Besides, the “Stability (%) mean ± SD, T4 samples” value in [5] (setting [9]) stood at 89.18 ± 18.05%. Also, the “Ctrough (Cmin), mean ± SD” value in [6] is 4050 ± 2070 ng/mL. The “Stability (%)” value in data set [7] (H-QC (18 µg/mL), 24 H vs Time 0) was 98.74%; in data set [7] (H-QC (18 µg/mL), Day 9 vs Time 0) it was 114.46%; in data set [7] (L-QC (0.3 µg/mL), 24 H vs Time 0) it was 101.72%; in data set [7] (L-QC (0.3 µg/mL), Day 9 vs Time 0), 113.79%; in data set [7] (M-QC (8 µg/mL), 24 H vs Time 0), 99.76%; in data set [7] (M-QC (8 µg/mL), Day 9 vs Time 0), 113.09%. In addition, the “Minimum concentration (Cmin), median (range)” value in data set [8] is 2800 ng/mL.
With `CC(C)(C)c1cc(C(C)(C)CO)c(O)cc1NC(=O)c1c[nH]c2ccccc2c1=O` [M1-IVA, hydroxymethyl ivacaftor], in the data set with CFTR, the “Potency of metabolite relative to parent compound” value was 1/6.
